Test [1] has as its target T1, SERT (Homo sapiens, UniProt P31645).
T1 construct: The templates were full-length and nontagged human SERT in pcdna3.1; expressed in transfected cells; host or cells: COS-7, HEK293 or MDCK (uptake); COS-7 (efflux)
Description: [3H]-serotonin uptake after preincubation with modulator. The format is cell-based. Particulars: for effect on Vmax of serotonin uptake: serotonin uptake kinetics. How it is done: (§1) COS-7, HEK293, and MDCK cells were maintained in Dulbecco modified Eagle medium (3.5 g/l glucose) supplemented with FBS (10% each) at 37° C. with 5% CO2. Uptake experiments were performed 2 days after transfecting DNAs (hSERT, human dopamine transporter [hDAT], chimeras or mutants, or empty vector for background) with TransIT-LT1 (Minis Bio LLC, Madison, Wis., USA) transfection reagent and plating the cells in 24- or 96-well plates.
(§2) The uptake was allowed to continue for 10 min at room temperature and was terminated by washing with PBS-CM. […] Vmax and KM are given as mean±S.D. of three independent experiments. […] EC50 values are given as mean±S.E.M. of at least five independent experiments. Statistical significance between vehicle and drug treatments was assessed using Student t-test or one-way analysis of variance (ANOVA) Dunnett's multiple-comparison test (p<0.05).

Test [2] addresses T1, SERT. Description: SERT-mediated serotonin uptake inhibition by SSRIs in presence of modulator. Particulars: effect weaker than with citalopram. In kind it is cell-based. How it is done:
as §1, with “plates. The media was removed and the cells were washed with PBS (137 mM NaCl, 2.7 mM KCl, 4.3 mM Na2HPO4, 1.4 mM KH2PO4, pH 7.4) containing 0.1 mM CaCl2, 1 mM MgCl2, 10 μM clorgyline, 10 μM pargyline, 5 μM RO 41-0960, and 100 μM ascorbic acid (PBS-CM).” for “plates.”
Mutants are functionally tested in transfected COS-7 cells. Based on the success of the approach that identified the A1 site, the critical residues identified elsewhere herein are tested for changes in uptake kinetics and amphetamine-mediated efflux. Following this initial screen, residues displaying altered activity are tested further in uptake inhibition and ligand displacement assays. […] Following uptake, cells are washed and radioactivity is counted using liquid scintillation counting. […] Apparent Km and Vmax are determined using nonlinear regression analysis. The interaction of WT and mutant MAT with psychostimulants and transporter inhibitors is assessed using uptake inhibition assays. […]

Test [3] concerns the target T2, SERT E493D mutant (Homo sapiens, UniProt P31645, E493D).
T2 construct: The templates were full-length and nontagged human SERT in pcdna3.1; expressed in transfected cells; host or cells: COS-7
Description: SERT function with mutated extracellular gate. In kind it is cell-based.

Test [4] addresses T1, SERT. Description: cell-based. Here is the method:
as §1, §2

The target of test [5] is SmSERT (Schistosoma mansoni, UniProt Q3I1M7). Description: Transport inhibition constants, SmSERT. The format is cell-based.
Sequence of SmSERT (Q3I1M7 entry or part of it): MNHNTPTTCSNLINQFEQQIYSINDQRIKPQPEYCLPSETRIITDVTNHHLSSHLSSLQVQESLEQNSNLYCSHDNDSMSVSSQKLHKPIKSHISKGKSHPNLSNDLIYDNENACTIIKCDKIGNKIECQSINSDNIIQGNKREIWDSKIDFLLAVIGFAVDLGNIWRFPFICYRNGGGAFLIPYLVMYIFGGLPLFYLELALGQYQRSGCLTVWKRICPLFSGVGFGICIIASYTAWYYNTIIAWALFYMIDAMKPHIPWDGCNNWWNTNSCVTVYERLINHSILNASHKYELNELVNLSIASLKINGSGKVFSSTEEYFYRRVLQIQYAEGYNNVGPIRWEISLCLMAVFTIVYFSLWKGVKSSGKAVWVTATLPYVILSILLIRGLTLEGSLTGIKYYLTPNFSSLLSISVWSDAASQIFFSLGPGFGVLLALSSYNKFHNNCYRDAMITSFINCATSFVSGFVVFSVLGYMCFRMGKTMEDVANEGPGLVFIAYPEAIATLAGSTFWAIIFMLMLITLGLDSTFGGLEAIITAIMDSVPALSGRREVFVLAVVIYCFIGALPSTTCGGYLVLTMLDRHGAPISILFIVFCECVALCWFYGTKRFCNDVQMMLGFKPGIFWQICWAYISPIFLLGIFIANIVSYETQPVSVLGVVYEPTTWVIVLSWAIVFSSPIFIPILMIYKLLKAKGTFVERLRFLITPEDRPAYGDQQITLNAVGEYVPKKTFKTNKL
In test [6] the target is T3, hSERT 112C mutant (N112C) (Homo sapiens, UniProt P31645, N112C).
T3 construct: The templates were full-length and nontagged human SERT in pcdna3.1; expressed in transfected cells; host or cells: COS-7 (efflux)
Description: MDMA-elicited [3H]-serotonin efflux in COS-7 cells, 112C mutant. Particulars: for effect on MDMA-elicited efflux: 112C (N112C) mutant, 1 μM modulator. In kind it is cell-based. How it is done: (§3) COS-7 cells were maintained under the same conditions as above. Efflux experiments were performed 2 days after cell transfection with hSERT or empty vector and plating of the cells in 24-well plates. Cells were washed with room temperature PBS-CM and then loaded with 50 nM [^3H]-serotonin for 1 h. After preloading, cells were washed twice with buffer and then incubated for 10 min with or without substrates at room temperature. After incubation, the supernatant was collected, liquid scintillation fluid added, and the samples counted (Beckman LS-6500 Multi-purpose Scintillation Counter; Beckman Coulter, Brea, Calif.). The cells were solubilized in a solution of 0.1% sodium dodecyl sulfate and 0.1 M NaOH; liquid scintillation fluid was added and tubes were counted as above. All assays were done in quadruplicate.
(§4) The percentage of [^3H]-serotonin efflux among different treatments was calculated by adding counts of supernatant plus cell lysis, with the supernatant counts then divided by the total and multiplied by 100 to yield the percentage of efflux.

Test [7] relates to mSERT mutant YETQ-L563V. Description: Substrate-elicited efflux, mSERT mutant YETQ-L563V. To be noted: up to highest testable concentration. The format is cell-based, mouse. How it is done: Efflux is terminated by collecting the supernatant. Both cells and supernatant are counted by liquid scintillation counting. Efflux is calculated as ratio of supernatant over supernatant and cells.

Test [8] addresses T4, hDAT (Homo sapiens, UniProt Q01959).
T4 construct: expressed in transfected cells; host or cells: COS-7, HEK293 or MDCK
Description: [3H]-dopamine uptake after preincubation with modulator. In kind it is cell-based. Here is the method: as §1, §2

Test [9] concerns the target T5, hSERT wild-type (Homo sapiens, UniProt P31645).
T5 construct: The templates were full-length and nontagged human SERT in pcdna3.1; expressed in transfected cells; host or cells: COS-7 (efflux)
Description: Basal/leak [3H]-serotonin efflux in COS-7 cells, wild-type. In kind it is cell-based. To be noted: no extracellular substrate, read-out: IC50 inhibition of basal/leak efflux. Here is the method: as §3, §4

The target in test [10] is T6, hSERT 112C mutant (Homo sapiens, UniProt P31645, N112C).
T6 construct: The templates were full-length and nontagged human SERT in pcdna3.1; expressed in transfected cells; host or cells: COS-7 (efflux); COS-7, HEK293 or MDCK (uptake)
Description: Basal/leak [3H]-serotonin efflux in COS-7 cells, 112C mutant. In kind it is cell-based. Here is the method:
as §3, §4

The target in test [11] is paroxetine binding sites (Homo sapiens, UniProt P31645). Description: Paroxetine binding.
Test [12] has as its target wild-type human SERT (Homo sapiens, UniProt P31645). Description: MDMA-elicited [3H]-serotonin efflux in COS-7 cells, wild-type. More on the design: The templates were full-length and nontagged human SERT in pcdna3.1; expressed in transfected cells; host or cells: COS-7 (efflux). To be noted: for effect on MDMA-elicited efflux: 1 μM modulator. In kind it is cell-based. How it is done:
as §3, §4

“Also recorded” adds a separate entry of the source. Like-named read-outs stand apart in the source and are kept apart here.

The record followed here is patent US9616065B2, “Compositions useful in treating brain-related diseases or disorders and methods using same” (priority 2013, dated 2017).

T4 sequence (Q01959 whole entry): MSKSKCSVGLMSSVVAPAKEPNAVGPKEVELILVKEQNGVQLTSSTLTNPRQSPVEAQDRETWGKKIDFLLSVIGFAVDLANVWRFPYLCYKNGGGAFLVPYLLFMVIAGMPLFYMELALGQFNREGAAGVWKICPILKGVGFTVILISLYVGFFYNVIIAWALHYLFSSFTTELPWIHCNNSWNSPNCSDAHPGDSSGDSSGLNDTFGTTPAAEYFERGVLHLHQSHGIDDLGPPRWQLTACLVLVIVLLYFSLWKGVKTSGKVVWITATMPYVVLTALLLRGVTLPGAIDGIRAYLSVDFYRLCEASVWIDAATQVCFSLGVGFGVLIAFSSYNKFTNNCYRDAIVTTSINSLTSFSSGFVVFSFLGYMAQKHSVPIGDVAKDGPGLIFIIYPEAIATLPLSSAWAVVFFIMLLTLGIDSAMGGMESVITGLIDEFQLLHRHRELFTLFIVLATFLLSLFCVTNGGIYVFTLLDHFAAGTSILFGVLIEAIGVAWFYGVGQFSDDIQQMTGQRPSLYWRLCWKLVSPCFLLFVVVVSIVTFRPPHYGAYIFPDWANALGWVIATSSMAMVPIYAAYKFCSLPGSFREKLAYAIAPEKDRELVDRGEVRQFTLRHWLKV

For the compound `Cc1cc2nc(-c3ccc(SCC(=O)Nc4ccc(S(=O)(=O)NC5CC5)cc4)nc3)[nH]c2cc1C` [ATM1, N-[4-(cyclopropylsulfamoyl)phenyl]-2-{[5-(5,6-dimethyl-1H-benzimidazol-2-yl)-2-pyridinyl]sulfanyl}acetamide], the “effect on SERT uptake activity / specificity” value in test [1] is reported as “SERT-specific inhibitor”; in [1] (listed as KM-456), “specific for SERT”. The “mechanism of SERT inhibition” value in test [1] (Vmax and KM) is reported as “non-competitive mechanism”. Moreover, the “effect on affinity of fluoxetine for SERT” value in test [2] was “decreasing their affinity for SERT”. For the same compound, the “effect on SERT function” value in test [3] is “not affected”.
`CNC(C)Cc1ccc2c(c1)OCO2` (racemic) [(±)MDMA, methylenedioxy-methamphetamine]: the inhibitory constant (Ki) (in general, a dissociation constant, usually derived from enzyme kinetics or from competition with a known ligand) in [4] amounted to 2700 ± 500 nM; in test [5] it was 313000 ± 159000 nM. The “affinity for MDMA of mutant versus wild-type” value in [6] (N112C, dose-response experiment with MDMA) was “reduced by fivefold”. In test [7], the “reversal of transport (efflux)” value is listed as “did not elicit any significant reversal of transport”.
Regarding `CN(C)c1ccc(C(C(=O)NCc2ccccc2)N(Cc2cccnc2)C(=O)c2snc(C(N)=O)c2N)cc1` (stereo not drawn) [ATM7, 4-amino-N^5-{2-(benzylamino)-1-[4-(dimethylamino)phenyl]-2-oxoethyl}-N^5-(3-pyridinylmethyl)-1,2-thiazole-3,5-dicarboxamide], in test [1], the “effect on SERT uptake activity / specificity” value is recorded as “activated serotonin uptake very potently at nanomolar concentrations”. For the same compound, the “shape of concentration response on transporter uptake” value in [1] is “bell-shaped response”; in [1] (listed as KM-986) it was “biphasic mode of action, enhancing transporter activity at low concentrations and inhibiting transporter function at higher concentrations”. Further, the “activation of serotonin uptake” value in test [1] (dose-response assay) is “up to 50%”. Further, the figures for the “effect on Vmax of serotonin uptake” value in test [1] and in [1] (listed as KM-986) were “did not affect Vmax; also recorded: no effect” and “do not observe any effect; also recorded: no effect”, respectively. For the same compound, the “effect on hSERT uptake at low and high substrate concentration” value in test [1] (substrate 25 and 100 nM) is on record as “displayed activity only at low concentrations”. Besides, in test [8], the “effect on DAT uptake activity / specificity” value is recorded as “also DAT activity at higher concentrations”. In addition, the “efficacy of MDMA in eliciting release of intracellular serotonin in the presence of ATM7” value in [6] (1 μM ATM7, 112C mutant, vehicle treated 365%±40%) is listed as 375%±45%; in [12] (1 μM ATM7, vehicle treated 380%±10%) it was 510%±17%. Moreover, the “effect on MDMA-elicited efflux” value in test [6] is reported as “had no effect on MDMA-elicited efflux”; in test [6] (listed as KM-986) it was “does not show KM-986-mediated potentiation of MDMA-elicited efflux”; in [12] it was “enhanced MDMA-elicited efflux”; in test [12] (listed as KM-986), “potentiates MDMA-elicited efflux”. The IC50 in [9] turned out to be 0.63 ± 0.31 nM; in test [10], 37 ± 25 nM. For the same compound, the “effect on paroxetine binding sites” value in test [11] is listed as “decreased”. The “effect on affinity for MDMA” value in test [12] (1 μM ATM7) is recorded as “not affected”.
